Each structure is given as a SMILES string.

17 molecules from patent publication US20160129011A1, “BICYCLO 2,3-BENZODIAZEPINES AND SPIROCYCLICALLY SUBSTITUTED 2,3-BENZODIAZEPINES” (BAYER PHARMA AKTIENGESELLSCHAFT, priority 2013, published 2016) can be followed below.

The target of the assay is T1, BRD4 (BD1) (Homo sapiens, UniProt O60885).
T1 construct: longer constructs also being possible, preferably amino acids 44-168; made in house; host or cells: E. coli
Kind of assay: Binding assay BRD4/acetylated peptide H4 (TR-FRET protein-protein interaction assay). The note with it: BRD4 (BD1) / acetylated histone H4 peptide. An excerpt:
To assess the BRD4 binding strength of the substances described in this application, the ability thereof to inhibit the interaction between BRD4 (BD1) and acetylated histone H4 in a dose-dependent manner was quantified.
For this purpose, a time-resolved fluorescence resonance energy transfer (TR-FRET) assay was used, which measures the binding between N-terminally His6-tagged BRD4 (BD1) (amino acids 67-152, longer constructs also being possible, preferably amino acids 44-168) and a synthetic acetylated histone H4 (Ac—H4) peptide with sequence GRGK(Ac)GGK(Ac)GLGK(Ac)GGAK(Ac)RHGSGSK-biotin. The recombinant BRD4 protein produced in-house according to Filippakopoulos et al., Nature, 2010, 468:1119-1123 was expressed in E. coli and purified by means of (Ni-NTA) affinity and (Sephadex G-75) size exclusion chromatography. The Ac—H4 peptide can be purchased, for example, from Biosyntan (Berlin, Germany).
In the assay, typically 11 different concentrations of each substance (0.1 nM, 0.33 nM, 1.1 nM, 3.8 nM, 13 nM, 44 nM, 0.15 μM, 0.51 μM, 1.7 μM, 5.9 μM and 20 μM) were analysed as duplicates on the same microtitre plate. For this purpose, 100-fold concentrated solutions in DMSO were prepared by serial dilutions (1:3.4) of a 2 mM stock solution into a clear, 384-well microtitre plate (Greiner Bio-One, Frickenhausen, Germany). From this, 50 nl were transferred into a black test plate (Greiner Bio-One, Frickenhausen, Germany). The test was started by the addition of 2 μl of a 2.5-fold concentrated BRD4 solution (final concentration typically 10 nM in the 5 μl of reaction volume) in aqueous assay buffer [50 mM HEPES pH 7.5, 50 mM sodium chloride (NaCl), 0.25 mM CHAPS and 0.05% serum albumin (BSA)] to the substances in the test plate. This was followed by a 10-minute incubation step at 22° C. for the pre-equilibration of putative complexes between BRD4 and the substances.
The mixture was then incubated in the dark at 22° C. for one hour and then at 4° C. for at least 3 hours and for no longer than overnight. The formation of BRD4/Ac—H4 complexes was determined by the measurement of the resonance energy transfer from the streptavidin-Eu cryptate to the anti-6His-XL665 antibody present in the reaction. For this purpose, the fluorescence emission was measured at 620 nm and 665 nm after excitation at 330-350 nm in a TR-FRET measuring instrument, for example a Rubystar or Pherastar (both from BMG Lab Technologies, Offenburg, Germany) or a Viewlux (Perkin-Elmer). The ratio of the emissions at 665 nm and at […] was taken as an indicator of the amount of BRD4/Ac—H4 complexes formed.
The data (ratios) obtained were normalized, with 0% inhibition corresponding to the mean from the measurements for a set of controls (typically 32 data points) in which all the reagents were present. In these, in place of test substances, 50 nl of DMSO (100%) were used. Inhibition of 100% corresponded to the mean from the measurements for a set of controls (typically 32 data points) in which all the reagents except BRD4 were present. The IC50 was determined by regression analysis based on a 4-parameter equation (minimum, maximum, IC50, Hill; Y=max+(min−max)/(1+(X/IC50)^Hill)).
(In general: In TR-FRET formats the signal depends on donor and acceptor labels being close together.)
`CNC(=O)N1N=C(c2ccc(F)c(N3C[C@@H]4C[C@H]3CN4C)c2)c2cc(OC)c(OC)cc2C[C@H]1C` (relative stereo) [Example 41.1, [1S-(1R*,2(S*),4R*)]-1-[4-fluoro-3-(5-methyl-2,5-diazabicyclo[2.2.1]hept-2-yl)phenyl]-7,8-dimethoxy-4,5-dihydro-N,4-dimethyl-3H-2,3-benzodiazepine-3-carboxamide] showed an IC50 of 16500 nM.
The same measure for `CNC(=O)N1N=C(c2ccc(N3CCC4(CC3)CNC(=O)C4)cc2)c2cc(OC)c(OC)cc2CC1C` (racemic) [Example 28, (±)-7,8-Dimethoxy-N,4-dimethyl-1-[4-(3-oxo-2,8-diazaspiro[4.5]dec-8-yl)phenyl]-4,5-dihydro-3H-2,3-benzodiazepine-3-carboxamide]: 100 nM; for `CNC(=O)N1N=C(c2ccc(N3CCC4(CCN(C)C4)CC3)cc2)c2cc(OC)c(OC)cc2CC1C` (racemic) [Example 31, (±)-7,8-dimethoxy-N,4-dimethyl-1-[4-(2-methyl-2,8-diazaspiro[4.5]dec-8-yl)phenyl]-4,5-dihydro-3H-2,3-benzodiazepine-3-carboxamide]: 100 nM.
The figure for `CNC(=O)N1N=C(c2ccc(N3CCC4(CCCC4)CC3)cc2)c2cc(OC)c(OC)cc2C[C@H]1C` [Example 9.2, (4R)-1-[4-(8-azaspiro[4.5]dec-8-yl)phenyl]-7,8-dimethoxy-N,4-dimethyl-4,5-dihydro-3H-2,3-benzodiazepine-3-carboxamide] is above 20000 nM.
The figure for `CNC(=O)N1N=C(c2ccc(N3CC4(CCS4(=O)=O)C3)cc2)c2cc(-n3nc(C)cc3C)ccc2CC1C` (racemic) [Example 17, (±)-8-(3,5-dimethyl-1H-pyrazol-1-yl)-1-[4-(1,1-dioxido-1-thia-6-azaspiro[3.3]hept-6-yl)phenyl]-N,4-dimethyl-4,5-dihydro-3H-2,3-benzodiazepine-3-carboxamide] is 40 nM.
`CNC(=O)N1N=C(c2ccc(N3C(=O)[C@@H]4CC[C@H]3C4)cc2)c2cc(OC)c(OC)cc2C[C@@H]1C` (relative stereo) [Example 2, {1S-[1R*,2(S*),4S*]}-7,8-dimethoxy-N,4-dimethyl-1-[4-(-3-oxo-2-azabicyclo[2.2.1]hept-2-yl)phenyl]-4,5-dihydro-3H-2,3-benzodiazepine-3-carboxamide] gave an IC50 of 20 nM.
The same measure for `CNC(=O)N1N=C(c2ccc(F)c(N3C[C@@H]4C[C@H]3CN4C)c2)c2cc(OC)c(OC)cc2C[C@@H]1C` (relative stereo) [Example 41.2, [1S-(1R*,2(R*),4R*)]-1-[4-fluoro-3-(5-methyl-2,5-diazabicyclo[2.2.1]hept 2-yl)phenyl]-7,8-dimethoxy-4,5-dihydro-N,4-dimethyl-3H-2,3-benzodiazepine-3-carboxamide]: 380 nM; for `CNC(=O)N1N=C(c2ccc(N3CC4(CCS4(=O)=O)C3)cc2)c2cc(OC)c(OC)cc2C[C@H]1C` [Example 3.2, (4R)-1-[4-(1,1-Dioxido-1-thia-6-azaspiro[3.3]hept-6-yl)phenyl]-7,8-dimethoxy-N,4-dimethyl-4,5-dihydro-3H-2,3-benzodiazepine-3-carboxamide]: 2580 nM.
The same measure for `CNC(=O)N1N=C(c2ccc(N3C[C@@H]4C[C@H]3CN4C)cc2)c2cc(OC)c(OC)cc2C[C@@H]1C` (relative stereo) [Example 40.2, [1S-[1R*,2(R*),4R*]]-7,8-Dimethoxy-N,4-dimethyl-1-[4-(5-methyl-2,5-diazabicyclo[2.2.1]hept-2-yl)phenyl]-4,5-dihydro-3H-2,3-benzodiazepine-3-carboxamide]: 520 nM; for `CNC(=O)N1N=C(c2ccc(N3C[C@@H]4C[C@H]3CO4)cc2)c2cc(OC)c(OC)cc2C[C@@H]1C` [Example 35, (4S)-7,8-dimethoxy-N,4-dimethyl-1-{4-[(1S,4S)-2-oxa-5-azabicyclo[2.2.1]hept-5-yl]phenyl}-4,5-dihydro-3H-2,3-benzodiazepine-3-carboxamide]: 4110 nM.
The same measure for `CNC(=O)N1N=C(c2ccc(N3CC4(CN(C(=O)OC(C)(C)C)C4)C3)cc2)c2cc(OC)c(OC)cc2C[C@H]1C` [Example 8.2, tert-butyl 6-{4-[(4R)-7,8-dimethoxy-4-methyl-3-(melhylcarbamoyl)-4,5-dihydro-3H-2,3-benzodiazepine-1-yl]phenyl}-2,6-diazaspiro[3.3]heptane-2-carboxylate]: 2050 nM; for `CNC(=O)N1N=C(c2ccc(N3CCC4(CCCC4)CC3)cc2)c2cc(OC)c(OC)cc2C[C@@H]1C` [Example 9.1, (4S)-1-[4-(8-azaspiro[4.5]dec-8-yl)phenyl]-7,8-dimethoxy-N,4-dimethyl-4,5-dihydro-3H-2,3-benzodiazepine-3-carboxamide]: 200 nM; for `CNC(=O)N1N=C(c2ccc(N3CC4(CCS4(=O)=O)C3)cc2)c2cc(OC(F)(F)F)ccc2C[C@H]1C` [Example 18.1, (4R)-1-[4-(1,1-dioxido-1-thia-6-azaspiro[3.3]hept-6-yl)phenyl]-N,4-dimethyl-8-(trifluoromethoxy)-4,5-dihydro-3H-2,3-benzodiazepine-3-carboxamide]: 11500 nM.
For the molecule `CNC(=O)N1N=C(c2ccc(N3CC4(C3)CS(=O)(=O)C4)cc2)c2cc(OC)c(OC)cc2CC1C` (racemic) [Example 34, (±)-1-[4-(2,2-dioxido-2-thia-6-azaspiro[3.3]hept-6-yl)phenyl]-7,8-dimethoxy-N,4-dimethyl-4,5-dihydro-3H-2,3-benzodiazepine-3-carboxamide], the IC50 stood at 70 nM.
The figure for `CNC(=O)N1N=C(c2ccc(N3C4CCC3CC(=O)NC4)cc2)c2cc(OC)c(OC)cc2CC1C` (racemic) [Example 39, (±)-7,8-Dimethoxy-N,4-dimethyl-1-[4-(4-oxo-3,9-diazabicyclo[4.2.1]non-9-yl)phenyl]-4,5-dihydro-3H-2,3-benzodiazepine-3-carboxamide] is 120 nM.
The same measure for `CNC(=O)N1N=C(c2ccc(N3CCC4(CC3)COC(=O)N4)cc2)c2cc(OC)c(OC)cc2CC1C` (racemic) [Example 32]: 110 nM; for `CNC(=O)N1N=C(c2ccc(N3CC4(COC4)C3)cc2)c2cc(OC)c(OC)cc2C[C@H]1C` [Example 5.2, (4R)-7,8-dimethoxy-N,4-dimethyl-1-[4-(2-oxa-6-azaspiro[3.3]hept-6-yl)phenyl]-4,5-dihydro-3H-2,3-benzodiazepine-3-carboxamide]: 1360 nM.

In general, IC50 refers to the concentration that gives 50% inhibition. Low readings indicate inhibition by little substance, high ones a need for much substance.
